Reference: patent US20250082733A1, “m6A mRNA MODIFICATION IN CANCER TREATMENT” (CITY OF HOPE, priority 2017, published 2025)

Legend:
HeLa cells = experiment: Cell growth assay, control cells (HeLa); type: cell-based
[1] = test system: ADAM19, EPHA3, and KLF4 expression in PBT003 cells; experiment: RT-PCR of oncogene expression in GSCs; type: cell-based, human
Protocol: RT-PCR: Total RNAs isolated using Trizol reagent (Ambion) were subjected to reverse transcription (RT) performed using the Tetro cDNA synthesis Kit (BioLINE). RT-PCR reactions were performed using SYBR Green Master Mix (Thermo Scientific) on the Step One Plus Real-Time PCR instrument (Applied Biosystems). The primers for RT-PCR include METLL3 (F 5′-TCAGCATCGGAACCAGCAAAG-3′ (SEQ ID NO: 8); R 5′-TCCTGACTGACCTTCTTGCTC-3′ (SEQ ID NO: 9)), METLL14 (F 5′-GTTGGAACATGGATAGCCGC-3′ (SEQ ID NO: 10); R 5′-CAATGCTGTCGGCACTTTCA-3′ (SEQ ID NO: 11)), CD44 (F 5′-TGAGCATCGGATTTGAGACC-3′ (SEQ ID NO: 12); R 5′-TGTCATACTGGGAGGTGTTGG-3′ (SEQ ID NO: 13)), ADAM19 (F 5′-CCTGGATGGACAAGAGGAAG-3′ (SEQ ID NO: 14); R 5′-CTCAGCTTTGAGTGGATGCT-3′ (SEQ ID NO: 15)), EPAH3 (F 5′-GGGCTGGATCTCTTATCCATC-3′ (SEQ ID NO: 16); R 5′-GGACCCAGTTTGTTCTCAGC-3′ (SEQ ID NO: 17)), KLF4 (F 5′-AAGAGTTCCCATCTCAAGGC-3′ (SEQ ID NO: 18); R 5′-CCGTGTGTTTACGGTAGTGC-3′ (SEQ ID NO: 19)), and ACTIN (F 5′-CCGCAAAGACCTGTACGCCAAC-3′ (SEQ ID NO: 20); R 5′-CCAGGGCAGTGATCTCCTTCTG-3′ (SEQ ID NO: 21)). ACTIN was included as the reference gene for normalization. The ΔΔCt method was used for quantification analysis.

PBT111 = experiment: Cell growth assay, MA2-treated GSCs (PBT111); type: cell-based, human; conditions: 48 h
Protocol: (§1) Treatment of GSCs with the FTO inhibitor MA2: GSCs were seeded at 5×10^4 cells per well in 48-well plates and cultured overnight. These cells were treated with MA2, a chemical inhibitor of FTO (Huang et al., 2015) at 20, 40, 60, 80 μM or vehicle control and cultured for 48 h. Cell number was counted using a hemocytometer. To determine the effect of MA2 on the level of m^6A RNA modification, GSCs were treated with 50 μM MA2 for 48 h. mRNAs were prepared and subjected to m^6A dot blot assay. To test the effect of MA2 in limiting dilution assay, GSCs were treated at 40 μM or vehicle control for two weeks.

PBT707 = experiment: Cell growth assay, MA2-treated GSCs (PBT707); type: cell-based, human; conditions: 48 h
Protocol: as §1

brain astrocytes = experiment: Cell growth assay, control cells (astrocytes); type: cell-based
FTO = FTO (Homo sapiens, UniProt Q9C0B1); conditions: Huang et al., 2015; cited from earlier work
GSCs [2] = experiment: Limiting dilution assay of GSCs treated with MA2; type: cell-based, human; conditions: 40 μM, two weeks, vs control cells
Protocol: Limiting dilution assay: GSCs were transduced with relevant shRNA or METTL3-expressing lentivirus. The transduced GSCs were seeded at 1, 5, 10, 20, 50 and 100 cells per well into 96-well plates. The number of neurospheres in each well was counted two weeks after seeding cells. Extreme limiting dilution analysis was performed using software available at http://bioinf.wehi.edu.au/software/elda.
as §1

GSCs [3] = experiment: Sphere formation assay of METTL3 or METTL14 KD GSCs with MA2; type: cell-based, human; conditions: together with MA2
Protocol: Sphere formation assay: The sphere formation assay was performed as previously described (Cui et al., 2016). Briefly, three days after viral transduction, the transduced cells were seeded at 1 cell per well in 96-well plates (for those associated with the limiting dilution assay) or 100 cells per well in 48-well plates and cultured for 2 weeks. The sphere number was counted under microscope. The sphere formation rate was defined as the percentage of sphere-forming cells out of the number of starting cells.

PBT003 cells [4] = experiment: Cell growth assay, MA2-treated GSCs (PBT003); type: cell-based, human; conditions: PBT003, 60 μM and 80 μM, 48 h
Protocol: as §1

[5] = test system: normal neural stem cells (NSC) line NSC006; experiment: Cell growth assay, control cells (NSC006); type: cell-based
PBT726 = experiment: Cell growth assay, MA2-treated GSCs (PBT726); type: cell-based, human; conditions: 48 h
Protocol: as §1

PBT003 cells [6] = experiment: Intratumoral MA2 in PBT003-grafted NSG mice; type: in vivo; conditions: vs vehicle control
Protocol: Introcranial delivery of the FTO inhibitor MA2: PBT003 cells (2×10^5) transduced with luciferase expressing lentivirus were intracranially transplanted into the frontal lobe of NSG mice at the same coordinates as described above. One week after transplantation, tumors were detected by bioluminescence imaging and mice were treated with MA2 (5 μl of 600 μM MA2 in 1% DMSO in PBS per mouse) or vehicle control by intratumoral injection once a week for four weeks. Tumor growth was monitored by bioluminescence imaging every week for six weeks. The bioluminescence intensity was quantified.
To test the effect of the FTO inhibitor on GSC-initiated tumorigenesis, PBT003-grafted mice were treated with the selective FTO inhibitor MA2 intratumorally once a week for four weeks (FIG. 11d). Tumor formation was monitored by bioluminescence xenogen imaging.

mRNA m^6A level in GSCs = experiment: m6A mRNA dot blot of GSCs treated with MA2; type: cell-based, human; conditions: 50 μM MA2, 48 h, vs vehicle control
Protocol: m^6A dot blot assay: GSCs were either maintained in sphere cultures or induced into differentiation for 1 week using 0.5% fetal bovine serum (Sigma) together with 1 μM all-trans retinoic acid (Sigma). Total RNAs were isolated from these GSCs using Trizol reagent (Ambion). GSCs were transduced with lentivirus expressing METTL3 or METTL14 shRNA or METTL3 cDNA. Seven days after transduction, total RNAs were extracted. mRNAs were prepared from total RNAs using Dynabeads® mRNA purification kit (Ambion, Catalog #61006). Indicated amount of mRNAs was used for dot blot analysis using an antibody specific for m^6A (1:1,000; Synaptic Systems; Catalog #202003). The intensity of dot blot signal was quantified by Image J.
as §1

FTO, sequence (Q9C0B1 whole entry): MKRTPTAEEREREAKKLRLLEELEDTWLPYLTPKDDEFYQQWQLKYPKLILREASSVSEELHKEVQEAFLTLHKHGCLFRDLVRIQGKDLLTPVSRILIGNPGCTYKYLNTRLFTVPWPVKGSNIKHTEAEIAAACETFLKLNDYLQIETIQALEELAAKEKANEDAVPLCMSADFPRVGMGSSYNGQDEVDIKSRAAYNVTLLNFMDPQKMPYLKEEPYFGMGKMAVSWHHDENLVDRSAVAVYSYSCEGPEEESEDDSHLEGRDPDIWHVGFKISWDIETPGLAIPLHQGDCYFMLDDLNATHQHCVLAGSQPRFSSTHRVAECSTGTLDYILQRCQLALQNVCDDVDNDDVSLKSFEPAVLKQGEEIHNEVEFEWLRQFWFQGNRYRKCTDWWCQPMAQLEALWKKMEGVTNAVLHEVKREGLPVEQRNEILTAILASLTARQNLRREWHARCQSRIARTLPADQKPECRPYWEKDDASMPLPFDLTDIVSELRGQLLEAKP

In the case of CCOC(=O)c1ccccc1Nc1c(Cl)ccc(C)c1Cl [MA2, ethyl ester form of meclofenamic acid (MA)], the cell growth (HeLa cells; 80 μM) is reported as “Mild effect”, the cell growth (HeLa cells; up to 60 μM) is reported as “no substantial effect” and the “expression of ADAM19, EPHA3, and KLF4” value [1] is reported as “decreased expression”. The cell growth (PBT111; PBT111, 20 μM and 40 μM) was “inhibited the growth”, the cell growth (PBT111; PBT111, 60 μM and 80 μM) was “substantial inhibitory effect” and the cell growth (PBT707; PBT707, 40 μM) was “suppressed the growth”. For the same compound, the cell growth (PBT707; PBT707, 60 μM and 80 μM) was “substantial inhibitory effect”, the cell growth (brain astrocytes; astrocytes, 80 μM) was “Mild effect” and the cell growth (brain astrocytes; brain astrocytes, up to 60 μM) was “no substantial effect”. The FTO inhibition (FTO) was “selective inhibitor of FTO”, the “self-renewal of GSCs (stem cell frequency)” value (GSCs [2]) was “dramatically inhibited the self-renewal” and the sphere formation rate (GSCs [3]) was “reversed the effect of elevated sphere formation rate”. The cell growth (PBT003 cells [4]) was “dramatic growth inhibitory effect”, the cell growth ([5]; NSC006, up to 60 μM) was “no substantial effect” and the cell growth ([5]; NSCs, 80 μM) was “Mild effect”. The cell growth (PBT726; PBT726, 40 μM) was “suppressed the growth”, the cell growth (PBT726; PBT726, 60 μM and 80 μM) was “substantial inhibitory effect” and the tumor luciferase activity (PBT003 cells [6]; 4 or 5 weeks after compound treatment) was “significant decrease”. For the same compound, the “tumor size by bioluminescence xenogen imaging” value (PBT003 cells [6]; intratumoral, once a week for four weeks) was “much smaller tumors”, the survival (PBT003 cells [6]; log-rank test) was “substantially prolonged survival” and the “mRNA m^6A level” value (mRNA m^6A level in GSCs) was “substantial increase”.
